Test results taken from PMC12780140, “Structural basis of sodium ion-dependent carnitine transport by OCTN2” (Nature Communications, 2025).

Target: T1, OCTN2 (hOCTN2) (Homo sapiens, UniProt O76082, Y211A)
T1 construct: gene SLC22A5; hOCTN2 mutant expressed in Xenopus laevis oocytes
T1 sequence (O76082 1-557 Y211A): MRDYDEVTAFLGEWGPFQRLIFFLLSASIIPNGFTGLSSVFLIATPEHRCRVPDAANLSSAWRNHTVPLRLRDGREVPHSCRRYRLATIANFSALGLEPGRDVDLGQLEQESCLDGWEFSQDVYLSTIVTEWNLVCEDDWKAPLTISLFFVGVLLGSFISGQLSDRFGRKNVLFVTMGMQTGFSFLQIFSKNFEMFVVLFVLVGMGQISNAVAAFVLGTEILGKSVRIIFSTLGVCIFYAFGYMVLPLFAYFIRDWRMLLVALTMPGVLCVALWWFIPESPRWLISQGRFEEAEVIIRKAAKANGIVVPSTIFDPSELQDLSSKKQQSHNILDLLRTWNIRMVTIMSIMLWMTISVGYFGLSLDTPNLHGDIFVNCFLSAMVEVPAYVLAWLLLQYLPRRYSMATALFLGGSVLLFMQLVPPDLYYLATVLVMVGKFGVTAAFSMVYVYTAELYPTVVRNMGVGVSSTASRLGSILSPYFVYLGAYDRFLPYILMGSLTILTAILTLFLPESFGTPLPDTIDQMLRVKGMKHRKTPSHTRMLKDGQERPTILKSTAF
Test: two-electrode voltage clamp in oocytes, apparent KM (increased versus wildtype)
Assay type: cell-based

C[N+](C)(C)C[C@H](O)CC(=O)[O-] [L-carnitine]
two-electrode voltage clamp in oocytes, apparent KM (increased versus wildtype): Mutating this residue to an alanine shows a similar increase in carnitine KM as the mutants above (Fig. 2f).
